From patent publication US12252488B2 (Nimbus Saturn, Inc., priority 2021, dated 2025) come the findings set out here.

For orientation: IC50 means the point on the concentration scale where inhibition reaches its midpoint.

SMILES strings stand for the structures.

The target in the experiment is T1, HPK1 (Homo sapiens, UniProt Q92918).
T1 construct: purchased Invitrogen
T1 sequence (Q92918 whole entry): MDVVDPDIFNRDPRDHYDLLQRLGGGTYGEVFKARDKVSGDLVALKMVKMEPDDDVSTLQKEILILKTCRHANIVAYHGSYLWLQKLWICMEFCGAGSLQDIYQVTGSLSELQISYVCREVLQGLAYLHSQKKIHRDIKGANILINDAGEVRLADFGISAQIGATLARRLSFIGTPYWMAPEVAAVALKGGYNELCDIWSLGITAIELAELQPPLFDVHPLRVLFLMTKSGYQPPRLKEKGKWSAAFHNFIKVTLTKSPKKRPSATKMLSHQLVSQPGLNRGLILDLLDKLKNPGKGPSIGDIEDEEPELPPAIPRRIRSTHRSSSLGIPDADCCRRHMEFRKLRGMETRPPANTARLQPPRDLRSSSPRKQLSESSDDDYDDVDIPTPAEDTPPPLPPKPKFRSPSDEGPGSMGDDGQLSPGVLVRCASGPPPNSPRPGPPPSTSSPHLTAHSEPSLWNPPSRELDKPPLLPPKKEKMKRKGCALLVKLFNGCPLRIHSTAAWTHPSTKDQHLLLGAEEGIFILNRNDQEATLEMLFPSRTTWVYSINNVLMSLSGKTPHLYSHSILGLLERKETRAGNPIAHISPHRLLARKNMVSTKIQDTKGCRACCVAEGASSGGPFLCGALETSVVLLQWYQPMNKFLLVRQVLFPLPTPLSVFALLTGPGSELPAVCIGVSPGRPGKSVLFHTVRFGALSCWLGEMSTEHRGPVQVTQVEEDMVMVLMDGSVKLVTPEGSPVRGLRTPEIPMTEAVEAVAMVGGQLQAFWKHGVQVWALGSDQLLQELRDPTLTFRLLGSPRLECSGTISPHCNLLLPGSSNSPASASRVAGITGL
Briefly: HPK1 biochemical enzyme assay (microfluidic mobility shift assay). The note with it: 1000 uM (1 mM) ATP; Caliper mobility shift; 1.5 nM HPK1; 30 min preincubation; read-out: HPK1 1000UMATP caliper IC50. The gist of the method: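 IC50 values, grouped into activity categories, come from 10-point titrations (top final 3 μM) preincubated 30 min with 1.5 nM enzyme and substrate at pH 7.4. ATP (1 mM), substrate (1 μM) and MgCl2 (5 mM) then added; after 60 min at RT, product separated by microfluidic mobility shift.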
Take `COc1cc(-c2cc(Nc3ccc(N4CCC(O)CC4)cn3)c3c(=O)[nH]ccc3n2)c(F)cc1C(=O)N1CC2C(C1)C2(F)F` (stereo not shown) [I-251, 2-[4-(6,6-difluoro-3-azabicyclo [3.1.0]hexane-3-carbonyl)-2-fluoro-5-methoxy-phenyl]-4-[[5-(4-hydroxy-1-piperidyl)-2-pyridyl]amino]-6H-1,6-naphthyridin-5-one]: the IC50 was not above 100 nM.

As to `COc1cc(-c2cc(Nc3ccc(N4C[C@H]5CC[C@@H](C4)O5)cn3)c3c(=O)[nH]ccc3n2)c(F)cc1C(=O)N1CCCCC1` [I-170, 2-[2-fluoro-5-methoxy-4-(piperidine-1-carbonyl)phenyl]-4-[[5-[(1R,5S)-8-oxa-3-azabicyclo [3.2.1]octan-3-yl]-2-pyridyl]amino]-6H-1,6-naphthyridin-5-one], the IC50 fell in the range of 100 to 1000 nM.

Consider `O=C(Nc1ccc(-c2cc(Nc3ccc(N4CCC(F)(F)CC4)cn3)c3c(=O)[nH]ccc3n2)c(F)c1)C1CCCCC1` [I-172, N-[4-[4-[[5-(4,4-difluoro-1-piperidyl)-2-pyridyl]amino]-5-oxo-6H-1,6-naphthyridin-2-yl]-3-fluoro-phenyl] cyclohexane-carboxamide], for which the IC50 is more than 1000 nM.

`CN(C)C1CCc2c1ccc(-c1cc(Nc3ccc(N4CCC(O)CC4)cn3)c3c(=O)[nH]ccc3n1)c2F` (stereo not shown) [I-237, 2-[1-(dimethyl-amino)-4-fluoro-indan-5-yl]-4-[[5-(4-hydroxy-1-piperidyl)-2-pyridyl]amino]-6H-1,6-naphthyridin-5-one]: the IC50 lay in the range of 100 to 1000 nM.

On to `CNC(=O)c1ccc(-c2cc(Nc3ccc(N4CCC(O)CC4)cn3)c3c(=O)[nH]ccc3n2)c(F)c1` [I-70, 3-fluoro-4-[4-[[5-(4-hydroxy-1-piperidyl)-2-pyridyl]amino]-5-oxo-6H-1,6-naphthyridin-2-yl]-N-methyl-benzamide], for which the half-maximal inhibitory concentration (IC50) fell in the range of 100 to 1000 nM.

Consider `COc1cc(-c2cc(Nc3cc(C4CCOC4)[nH]n3)c3c(=O)[nH]ccc3n2)c(F)cc1C(=O)N1CCCCC1` (stereo not shown) [I-225, 2-[2-fluoro-5-methoxy-4-(piperidine-1-carbonyl)phenyl]-4-[(5-THF-3-yl-1H-pyrazol-3-yl)amino]-6H-1,6-naphthyridin-5-one], for which the IC50 was more than 1000 nM.

On to `O=C(Nc1ccc(-c2cc(Nc3ccc(N4CCC(O)CC4)cn3)c3c(=O)[nH]ccc3n2)c(F)c1)[C@H]1C[C@H]2CC[C@@H]1C2` (single isomer, unassigned) [I-261], for which the IC50 is not above 100 nM.

As for `CC(C)(C#N)c1ccc(F)c(-c2cc(Nc3ccc(N4CCC(O)CC4)cn3)c3c(=O)[nH]ccc3n2)c1` [I-104, 2-[4-fluoro-3-[4-[[5-(4-hydroxy-1-piperidyl)-2-pyridyl]amino]-5-oxo-6H-1,6-naphthyridin-2-yl]phenyl]-2-methyl-propane-nitrile], the IC50 was more than 1000 nM.

With `CC(C)(O)c1c[nH]c(=O)c2c(Nc3ccc(N4CCC(O)CC4)cn3)cc(-c3c(F)cccc3F)nc12` [I-16, 2-(2,6-difluorophenyl)-8-(1-hydroxy-1-methyl-ethyl)-4-[[5-(4-hydroxy-1-piperidyl)-2-pyridyl]amino]-6H-1,6-naphthyridin-5-one], the IC50 was 100 to 1000 nM.

For `CN(C(=O)C1CC1)c1ccc(-c2cc(Nc3ccc(N4CCC(O)CC4)cn3)c3c(=O)[nH]ccc3n2)c(F)c1` [I-108, N-[3-fluoro-4-[4-[[5-(4-hydroxy-1-piperidyl)-2-pyridyl]amino]-5-oxo-6H-1,6-naphthyridin-2-yl]phenyl]-N-methyl-cyclopropane-carboxamide], the IC50 was not above 100 nM.

As to `CC(O)(c1ccc(F)c(-c2cc(Nc3ccc(N4CCC(O)CC4)cn3)c3c(=O)[nH]ccc3n2)c1)C(F)(F)F` (stereo not shown) [I-123, 2-[2-fluoro-5-(2,2,2-trifluoro-1-hydroxy-1-methyl-ethyl)phenyl]-4-[[5-(4-hydroxy-1-piperidyl)-2-pyridyl]amino]-6H-1,6-naphthyridin-5-one], the IC50 is not above 100 nM.

`O=C(c1ccc(-c2cc(Nc3ccc(N4CCC(O)CC4)cn3)c3c(=O)[nH]ccc3n2)c(F)c1)N1CC2CCC(C1)O2` [I-142, 2-[2-fluoro-4-(8-oxa-3-azabicyclo [3.2.1]octane-3-carbonyl)phenyl]-4-[[5-(4-hydroxy-1-piperidyl)-2-pyridyl]amino]-6H-naphthyridin-5-one]: the IC50 is not above 100 nM.

For `CCNC(=O)c1ccc(Nc2cc(C(C)C)nc3cc[nH]c(=O)c23)cc1` [I-29, N-ethyl-4-[(2-isopropyl-5-oxo-6H-1,6-naphthyridin-4-yl)amino] benzamide], the 50% inhibitory concentration (IC50) was 100 to 1000 nM.

In the case of `COc1cc(-c2cc(Nc3ccc(N4C[C@H]5COC[C@H]5C4)cn3)c3c(=O)[nH]ccc3n2)c(F)cc1C(=O)N1CCCCC1` [I-229, 4-[[5-[(3aR,6aS)-1,3,3a,4,6,6a-hexahydro-furo[3,4-c]pyrrol-5-yl]-2-pyridyl]amino]-2-[2-fluoro-5-methoxy-4-(piperidine-1-carbonyl)phenyl]-6H-1,6-naphthyridin-5-one], the IC50 lay in the range of 100 to 1000 nM.

Take `O=c1[nH]ccc2nc(N3CCC3)cc(Nc3ccc(N4CCC(O)CC4)cn3)c12` [I-144, 2-(azetidin-1-yl)-4-[[5-(4-hydroxy-1-piperidyl)-2-pyridyl]amino]-6H-1,6-naphthyridin-5-one]: the IC50 is more than 1000 nM.

As to `O=c1[nH]ccc2nc(-c3ccnc4[nH]ccc34)cc(Nc3ccc(N4CCC(O)CC4)cn3)c12` [I-282, 4-[[5-(4-hydroxy-1-piperidyl)-2-pyridyl]amino]-2-(1H-pyrrolo [2,3-b]pyridin-4-yl)-6H-1,6-naphthyridin-5-one], the IC50 is more than 1000 nM.

`O=c1[nH]ccc2nc(-c3cc4c(cc3F)CCC4N3CC4(CCOC4)C3)cc(Nc3ccc(N4CCC(O)CC4)cn3)c12` (stereo not shown) [I-260, 2-[6-fluoro-3-(6-oxa-2-azaspiro [3.4]octan-2-yl)indan-5-yl]-4-[[5-(4-hydroxy-1-piperidyl)-2-pyridyl]amino]-6H-1,6-naphthyridin-5-one]: the concentration for half-maximal inhibition (IC50) is 100 to 1000 nM.

Take `CC(C)c1cc(Nc2ccc(N3CCOCC3)cn2)c2c(=O)[nH]ccc2n1` [I-22, 2-isopropyl-4-[(5-morpholino-2-pyridyl)amino]-6H-1,6-naphthyridin-5-one]: the IC50 is not above 100 nM.

Regarding `O=C(Nc1ccc(-c2cc(Nc3ccc(N4CCC(O)CC4)cn3)c3c(=O)[nH]ccc3n2)c(F)c1)C1CC1` [I-58, N-[3-fluoro-4-[4-[[5-(4-hydroxy-1-piperidyl)-2-pyridyl]amino]-5-oxo-6H-1,6-naphthyridin-2-yl]phenyl] cyclopropane-carboxamide], the half-maximal inhibitory concentration (IC50) was not above 100 nM.

As for `CC(C)(O)c1ccc(F)c(-c2cc(Nc3ccc(N4CCC(O)CC4)cn3)c3c(=O)[nH]ccc3n2)c1` [I-116, 2-[2-fluoro-5-(1-hydroxy-1-methyl-ethyl)phenyl]-4-[[5-(4-hydroxy-1-piperidyl)-2-pyridyl]amino]-6H-1,6-naphthyridin-5-one], the half-inhibitory concentration (IC50) fell in the range of 100 to 1000 nM.

Turning to `O=C(c1ccc(-c2cc(Nc3ccc(N4CCC(O)CC4)cn3)c3c(=O)[nH]ccc3n2)c(F)c1)N1CC2CCC1CC2` [I-124, 2-[4-(3-azabicyclo [2.2.2]octane-3-carbonyl)-2-fluoro-phenyl]-4-[[5-(4-hydroxy-1-piperidyl)-2-pyridyl]amino]-6H-1,6-naphthyridin-5-one], the IC50 was 100 to 1000 nM.

Turning to `Cc1cnccc1-c1cc(Nc2ccc(N3CCC(O)CC3)cn2)c2c(=O)[nH]ccc2n1` [I-280, 4-[[5-(4-hydroxy-1-piperidyl)-2-pyridyl]amino]-2-(3-methyl-4-pyridyl)-6H-1,6-naphthyridin-5-one], the IC50 is more than 1000 nM.

Turning to `COc1cc(F)c(-c2cc(Nc3ccc(N4CCC(O)CC4)cn3)c3c(=O)[nH]ccc3n2)cc1C` [I-55, 2-(2-fluoro-4-methoxy-5-methyl-phenyl)-4-[[5-(4-hydroxy-1-piperidyl)-2-pyridyl]amino]-6H-1,6-naphthyridin-5-one], the IC50 was in the range of 100 to 1000 nM.

Consider `O=c1[nH]ccc2nc(N3CC[C@H](O)C3)cc(Nc3ccc(N4CCC(O)CC4)cn3)c12` [I-88, 4-[[5-(4-hydroxy-1-piperidyl)-2-pyridyl]amino]-2-[(3S)-3-hydroxy-pyrrolidin-1-yl]-6H-1,6-naphthyridin-5-one], for which the IC50 was not above 100 nM.

As for `CC(C)Cc1cc(Nc2ccc(N3CCC(O)CC3)cn2)c2c(=O)[nH]ccc2n1` [I-28, 4-[[5-(4-hydroxy-1-piperidyl)-2-pyridyl]amino]-2-isobutyl-6H-1,6-naphthyridin-5-one], the IC50 was in the range of 100 to 1000 nM.

Take `CCN(C)C(=O)C(C)(C)c1ccc(Nc2cc(-c3c(F)cccc3F)nc3cc[nH]c(=O)c23)nc1` [I-52, 2-[6-[[2-(2,6-difluoro-phenyl)-5-oxo-6H-1,6-naphthyridin-4-yl]amino]-3-pyridyl]-N-ethyl-N,2-dimethyl-propanamide]: the IC50 was 100 to 1000 nM.

`CCNC(=O)c1ccc(Nc2cc(-c3c(F)cccc3F)nc3cc[nH]c(=O)c23)cc1` [I-4, 4-[[2-(2,6-difluoro-phenyl)-5-oxo-6H-1,6-naphthyridin-4-yl]amino]-N-ethyl-benzamide]: the half-maximal inhibitory concentration (IC50) was not above 100 nM.

Regarding `O=c1[nH]ccc2nc(C3CC4CCC3C4)cc(Nc3ccc(N4CCC(O)CC4)cn3)c12` (stereo not shown) [I-40, 4-[[5-(4-hydroxy-1-piperidyl)-2-pyridyl]amino]-2-norbornan-2-yl-6H-1,6-naphthyridin-5-one], the half-maximal inhibitory concentration (IC50) was in the range of 100 to 1000 nM.

On to `O=C(c1ccc(-c2cc(Nc3ccc(N4CCOCC4)cn3)c3c(=O)[nH]ccc3n2)c(F)c1)N1CCCCC1` [I-155, 2-[2-fluoro-4-(piperidine-1-carbonyl)phenyl]-4-[(5-morpholino-2-pyridyl)amino]-6H-1,6-naphthyridin-5-one], for which the IC50 was more than 1000 nM.

Consider `CCNC(=O)C(C)(C)c1ccc(Nc2cc(-c3c(F)cccc3F)nc3cc[nH]c(=O)c23)nc1` [I-46, 2-[6-[[2-(2,6-difluoro-phenyl)-5-oxo-6H-1,6-naphthyridin-4-yl]amino]-3-pyridyl]-N-ethyl-2-methyl-propanamide], for which the IC50 was 100 to 1000 nM.

Consider `O=c1[nH]ccc2nc(C3CCC3)cc(Nc3ccc(N4CCC(O)CC4)cn3)c12` [I-26, 2-cyclobutyl-4-[[5-(4-hydroxy-1-piperidyl)-2-pyridyl]amino]-6H-1,6-naphthyridin-5-one], for which the IC50 was more than 1000 nM.
